Laboratory results taken from article PMC4398456, “Evidence for a Novel Mechanism of Antimicrobial Action of a Cyclic R-,W-Rich Hexapeptide” (PLoS ONE, 2015).
Residues, ends and D or L forms follow the SMILES beside them.

System: B. subtilis 168
Test: Cardiolipin staining with NAO, fluorescence microscopy
Assay type: cell-based
Conditions: 500 nM NAO 60 min, then 12 μM peptide 30 min, room temperature; 520 and 640 nm
Description: Cells were first incubated with the dye for 60 minutes in the dark, at room temperature at 600 rpm (ensuring sufficient aeration). Afterwards, cWFW was added at a final concentration of 12 μM and co-incubated with NAO for another 30 minutes under the same conditions.
Specific staining of CL with NAO has been shown before and is neither influenced by fixation nor depolarisation of the membrane. The emission shift from green to red fluorescence (513 nm to 640 nm) was reported to be exclusive for binding to CL and is caused by narrow stacking of dye molecules. Images were captured using a Zeiss Axiovert M200 inverted fluorescence microscope and an LSM 510 ConfoCor2 (Germany) with plan-apochromat 63, 100×/1.4 objective, respectively, and processed with ImageJ.

N=C(N)NCCC[C@@H]1NC(=O)[C@H](CCCNC(=N)N)NC(=O)[C@H](Cc2c[nH]c3ccccc23)NC(=O)[C@H](Cc2ccccc2)NC(=O)[C@H](Cc2c[nH]c3ccccc23)NC(=O)[C@H](CCCNC(=N)N)NC1=O [cWFW] (cyclo(FWRRRW))
effect on NAO fluorescence (cardiolipin staining): significant decrease in NAO fluorescence intensity at both wavelengths
